From the NIST ThermoML archive (doi:10.1016/j.jct.2005.02.004)
± gives the expanded uncertainty stated by the source.

Settings: Liquid, Vibrating tube method

CO [methanol]
Settings	mass density [kg/m3]
298.26 K, 235 kPa	785.98 ± 0.42
298.26 K, 5000 kPa	790.69 ± 0.43
298.26 K, 9999 kPa	795.4 ± 0.44
298.26 K, 15013 kPa	799.88 ± 0.45
298.26 K, 19987 kPa	804.1 ± 0.47
298.26 K, 25008 kPa	808.17 ± 0.48
298.26 K, 29997 kPa	812.04 ± 0.5
298.26 K, 34991 kPa	815.76 ± 0.52
298.26 K, 39981 kPa	819.34 ± 0.53
323.22 K, 270 kPa	762.14 ± 0.42
323.22 K, 4990 kPa	767.53 ± 0.43
323.22 K, 9984 kPa	772.87 ± 0.45
323.22 K, 14982 kPa	777.91 ± 0.46
323.22 K, 19989 kPa	782.69 ± 0.48
323.22 K, 24986 kPa	787.21 ± 0.5
323.22 K, 29995 kPa	791.53 ± 0.52
323.22 K, 34987 kPa	795.64 ± 0.54
323.22 K, 39993 kPa	799.6 ± 0.56
348.25 K, 366 kPa	737.29 ± 0.43
348.25 K, 4987 kPa	743.46 ± 0.44
348.25 K, 9986 kPa	749.65 ± 0.46
348.25 K, 14991 kPa	755.42 ± 0.47
348.25 K, 20004 kPa	760.84 ± 0.49
348.25 K, 25020 kPa	765.94 ± 0.52
348.25 K, 30013 kPa	770.76 ± 0.54
348.25 K, 34989 kPa	775.32 ± 0.56
348.25 K, 40000 kPa	779.7 ± 0.58
373.26 K, 534 kPa	710.55 ± 0.43
373.26 K, 4983 kPa	717.67 ± 0.44
373.26 K, 9990 kPa	724.99 ± 0.46
373.26 K, 14998 kPa	731.69 ± 0.49
373.26 K, 19985 kPa	737.88 ± 0.51
373.26 K, 24994 kPa	743.68 ± 0.53
373.26 K, 29997 kPa	749.13 ± 0.56
373.26 K, 35001 kPa	754.27 ± 0.58
373.26 K, 39996 kPa	759.14 ± 0.61
398.28 K, 934 kPa	680.93 ± 0.44
398.28 K, 4984 kPa	689 ± 0.45
398.28 K, 9998 kPa	697.91 ± 0.47
398.28 K, 14986 kPa	705.88 ± 0.5
398.28 K, 19987 kPa	713.16 ± 0.53
398.28 K, 24992 kPa	719.87 ± 0.55
398.28 K, 29991 kPa	726.11 ± 0.58
398.28 K, 35005 kPa	731.99 ± 0.61
398.28 K, 40004 kPa	737.47 ± 0.64
